From patent publication US20230322805A1, “NOVEL PYRIMIDODIAZEPINE DERIVATIVES OR USES THEREOF” (SPARK BIOPHARMA, INC., priority 2020, published 2023)

Columns and labels:
PDIA3 = target: T1, PDIA3 (Homo sapiens, UniProt P30101); assay: TS-FITGE thermal stability shift; assay type: binding; parameters: endogenous in cells; host or cells: HEK293 BiFC-tau cells (TS-FITGE, CETSA, PEG-maleimide assay); conditions: 10 μM, 200 nM thapsigargin, 3 hours, HEK293 BiFC-tau cells
T1 sequence (P30101 25-505): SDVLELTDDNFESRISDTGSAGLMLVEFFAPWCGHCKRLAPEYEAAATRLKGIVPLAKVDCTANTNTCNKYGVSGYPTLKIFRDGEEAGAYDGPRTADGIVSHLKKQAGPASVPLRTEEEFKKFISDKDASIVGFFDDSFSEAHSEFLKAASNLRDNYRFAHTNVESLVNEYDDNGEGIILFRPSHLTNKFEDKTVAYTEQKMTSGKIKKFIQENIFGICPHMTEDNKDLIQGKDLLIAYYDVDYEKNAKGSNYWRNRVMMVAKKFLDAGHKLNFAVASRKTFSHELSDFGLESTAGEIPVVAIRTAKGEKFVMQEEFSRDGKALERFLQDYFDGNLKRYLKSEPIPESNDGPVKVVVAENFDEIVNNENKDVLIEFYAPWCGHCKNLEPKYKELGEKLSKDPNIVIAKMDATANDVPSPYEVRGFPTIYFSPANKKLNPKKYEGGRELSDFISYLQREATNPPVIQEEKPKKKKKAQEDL
Protocol: HEK293 BiFC-tau cells were treated with dimethylsulfoxide (DMSO, 0.1%) and a compound according to the present invention (10 μM) in the presence of thapsigargin (200 nM) for 3 hours. The cell suspension was heated at the indicated temperature range for 3 minutes and then at 25° C. for 3 minutes. The heated cells were washed with PBS and resuspended in lysis buffer A (0.4% NP-40 in PBS supplemented with protease inhibitor cocktail). For cell lysis, cell suspensions were freeze-thawed in liquid nitrogen three times. The cell lysate was washed by centrifugation at 20000 g, 4° C. for 20 minutes. Protein concentration of the soluble fraction was quantified by Pierce BCA protein assay. After precipitating 50 μg of protein with cold acetone, it was centrifuged at […] and 4° C. for 7 minutes. The residual pellet was resuspended in 10 μl of conjugation buffer (30 mM Tris-HCl at pH 8.6, 30 mM thiourea, 7 M urea and 4% w/v CHAPS). 1 μl of 0.4 mM Cy2-N-hydroxysuccinimide(Cy2-NHS) (for DMSO-treated group), Cy3-NHS (for SB1607-treated group) or Cy5-NHS (for SB1617-treated group) was mixed with the protein and incubated at 4° C. for 45 minutes. […] Protein spot locations and fluorescence signals were analyzed with DeCyder 2D software ver. […]

[1] = test system: autophagy-related genes regulated by ATF4 in SH-SY5Y cells; assay: RT-qPCR of autophagy-related genes regulated by ATF4; assay type: cell-based, human; conditions: 5 μM SB1617 with 1 μM thapsigargin, 8 hours, versus thapsigargin alone
Protocol: To analyze the level of autophagy-related genes, SH-SY5Y cells were treated with 1 μM thapsigargin for 8 h in the presence or absence of 5 μM SB1617. Total RNA was extracted using the RNeasy kit (Qiagen) according to the manufacturer's instructions. RNA was quantified using NanoVue (GE Healthcare) and cDNA was prepared with AccuPower CycleScript RT PreMix dT20 (Bioneer) according to the manufacturer's instructions. Quantitative RT-polymerase chain reaction (qRT-PCR) experiments were performed using KAPA SYBR FAST ABI Prism qPCR Master Mix (KAPA Biosystems). Data were analyzed with the comparative Ct method and normalized to housekeeping genes.
5-3. ATF4 is a transcription factor, which rises during elF2a-phosphorylation and upregulates genes related to autophagy and oxidation/reduction control as a recovery mechanism during ER stress. To assure this, 5 μM SB1617 was treated in SH-SY5Y cells for 8 hours in the presence or absence of 1 μM thapsigargin, and then autophagy-related genes regulated by ATF4 were identified with RT-qPCR.

SOD1 (G93A) = assay: Level of aggregation-prone mutant protein after treatment; assay type: cell-based; conditions: SB1617 treatment
Text: (§1) Plasmids pRK5-EGFP-Tau (#46904) and pRK-EGFP-Tau P301 L (#46908) were purchased from Addgene. Plasmids pCMV-SOD1-EGFP and pCMV-SOD1 G93A-EGFP were provided by Seoul National University College of Medicine. Plasmids were transfected in HEK293T cells using Lipofectamine and Opti-MEM (Gibco) based on the manufacturer's instructions. Short interfering RNA duplex (siRNA duplex, BIONEER) for PDIA3 and DNAJC3 was used for PDIA3 and DNAJC3 knockdown experiments. siRNA oligonucleotides were transfected in HEK293 cells stably expressing BiFC-tau using Lipofectamine RNAiMAX (ThermoFisher Scientific) and Opti-MEM (Gibco) based on the manufacturer's instructions.
(§2) 5-6. From the results of Test Examples 5-1 to 5-5, it was hypothesized that if SB1617, a pyrimidiazepine derivative from this invention, regulates protein homeostasis, it will be able to effectively control the level of other proteins that tend to be folded and accumulated incorrectly under ER stress conditions. To confirm this, changes in the level of other aggregation-oriented proteins according to SB1617 treatment were confirmed.
(§3) Tau P301 L is found in FTD patients with Parkinson's disease and is known to accelerate tau aggregation and accumulation in the mouse brain. Htt-Q74 refers to a polyglutamine dilated mutation that causes Huntington's disease. The SOD1 (G93A) mutation level is one of the clinical characteristics of ALS patients.

tau P301L = assay: as above; assay type: cell-based; conditions: SB1617 treatment
Text: as §1, §2, §3

CN(Cc1ccc(Cl)cc1)c1ncnc2c1[C@@H]1OC[C@H](CN2)N1S(=O)(=O)c1ccc([N+](=O)[O-])cc1 [Compound 117] was tested, and the “thermal stability of protein (TS-FITGE)” value (PDIA3) was “thermal stability of the protein was improved”, the “transcription level of autophagy-related genes regulated by ATF4” value [1] was “increased the transcription level of autophagy-related genes” and the “mutation level of SOD (G93A)” value (SOD1 (G93A)) was “downregulated”. The “mutation level of tau P301L” value (tau P301L) was “downregulated”.
